Measured values published in publication PMC12332266 (Frontiers in Pharmacology, 2025).
Where “and” joins values, the source holds several entries; their conditions need not be identical. Equal values may be shown once. Read-outs that look alike come from different tables or passages of the source.

Columns and labels:
[1] = tested on: hiPSC-CM (iCell Cardiomyocytes^2); assay: RTCA CardioECR assessment (impedance and electrophysiology parameters)
Description: (§1) Culture media change was performed every 2 days.
After seeding on fibronectin-coated xCELLigence ePlates (Agilent Technologies, Inc. Santa Clara, CA, USA), iCell^2 CM were monitored continuously through impedance electrodes. The following impedance parameters were measured: Cell Index (CI, measure of cell “health” and monolayer integrity), beating rate (BR) and amplitude (CI Amplitude, magnitude of contraction). Electrophysiology-like parameters (Field Potential Duration (FPD), considered as a surrogate for QT in in vivo studies, and Spike Amplitude (SA), depolarization induced by Na^+ channel opening) were measured starting from day 4–6, following the monolayer formation. […] All RTCA CardioECR data were double normalized (DMSO control and the baseline) with no further statistical group comparison for the normalized parameters. The variability of the data within the treatment groups was assessed by standard deviation.

[2] = tested on: hiPSC-CM (iCell Cardiomyocytes^2); assay: Intracellular miRNA expression by RT-qPCR in hiPSC-CM pellets after 72-hour treatment; settings: for fold induction at 0.01 µM / fold induction at 0.03 µM / fold induction at 0.1 µM / fold induction at 0.3 µM / fold induction at 1 µM / fold induction at 3 µM: Homo sapiens
Description: as §1
Total RNA was extracted from hiPSC-CM using the miRNeasy 96 Kit (Qiagen, Hilden, Germany) following the manufacturer’s recommendations. After the extraction, RNA purity was assessed by NanoDrop™ 8000 Spectrophotometer (Thermo Fisher Scientific Inc.). 5–10 ng/μL of RNA per sample were reverse transcribed and pre-amplified by using the TaqMan™ Advanced miRNA cDNA Synthesis Kit (Thermo Fisher Scientific Inc.). The synthesized cDNA was used for RT-qPCR with selected TaqMan™ assays (Thermo Fischer Scientific Inc.). RT-qPCR was carried out following the Applied Biosciences TaqMan miRNA expression assay protocol on a ViiA7 instrument (Thermo Fisher Scientific, Inc.). […] Therefore, to maximize the number of drugs and concentrations, explored in the same study, we pooled the triplicates for intracellular profiling of miRNAs. Therefore, no statistical analysis was performed on the data of miRNA profiling in the pellets of hiPSC-CM.
Following RTCA CardioECR assessment, hiPSC-CM cell pellets were collected, and total RNA was extracted and purified to investigate miRNAs upregulation by RT-qPCR. […] For the initial assessment of intracellular miRNAs in 12 different treatments, encompassing various drug classes, we used a panel of 17 miRNAs, which we selected from the publicly available data focusing mainly on in vitro models and structural cardiotoxicants (Supplementary Table S2).

[3] = ref extensive literature search, cited from earlier work
[4] = hiPSC-CM, 72-hour treatment, lowest concentration causing at least 20% change from baseline
[5] = lowest concentration tested which produced miRNA upregulation (fold change ≥2), 72 h
[6] = 72 h, read-out: hsa-miR-7-5p fold change
[7] = 72 h, read-out: hsa-miR-29a-5p fold change
[8] = 72 h, read-out: hsa-miR-96-5p fold change
[9] = 72 h, read-out: hsa-miR-126-3p fold change
[10] = 72 h, read-out: hsa-miR-133b fold change
[11] = 72 h, read-out: hsa-miR-146b-5p fold change
[12] = 72 h, read-out: hsa-miR-182-5p fold change
[13] = 72 h, read-out: hsa-miR-185-3p fold change
[14] = 72 h, read-out: hsa-miR-187-3p fold change
[15] = 72 h, read-out: hsa-miR-208b-3p fold change
[16] = 72 h, read-out: hsa-miR-365a-5p fold change
[17] = 72 h, read-out: hsa-miR-[…] change

CCN(CC)CCNC(=O)c1c(C)[nH]c(/C=C2\C(=O)Nc3ccc(F)cc32)c1C [Sunitinib]
Beating Rate MEC ([1]; hiPSC-CM, 72-hour treatment, at least 20% change, Supplementary Table 1): 1 µM
Beating rate (BR) MEC [1, 4]: 1 µM
RTCA, MEC (BR) ([1]; hiPSC-CM, change ≥20%, Table 2): 1 µM (BR)
Spike Amplitude (SA) MEC ([1]; human, 72 h): 0.01 µM
miRNAs hiPSC-CM pellet, MEC overall [2, 5]: 0.01 µM
Cmax total ([3]; Supplementary Table 1): 181 to 250 nM
Cmax total ([3]; Table 1): 180 to 250 nM

CCN[C@@H](C)Cc1cccc(C(F)(F)F)c1 [Dexfenfluramine]
Spike Amplitude (SA) MEC ([1]; hiPSC-CM, 72-hour treatment, at least 40% change): 0.01 µM
Beating rate (BR) MEC [1, 4]: ND (ND – not detected, magnitude of change was lower than 20%)
Cell index (CI) MEC [1, 4]: ND (ND – not detected, magnitude of change was lower than 20%)
RTCA, MEC (BR) ([1]; hiPSC-CM, change ≥20%, Table 2): ND (ND – not detected, magnitude of change was lower than 20% for CI/BR)
RTCA, MEC (CI) ([1]; hiPSC-CM, change ≥20%, Table 2): ND (ND – not detected, magnitude of change was lower than 20% for CI/BR)
fold induction at 0.01 µM [2, 6]: 0.8
fold induction at 0.03 µM [2, 6]: 0.8
fold induction at 0.1 µM [2, 6]: 0.7
fold induction at 0.3 µM [2, 6]: 1
fold induction at 0.01 µM [2, 7]: 1.8
fold induction at 0.03 µM [2, 7]: 0.8
fold induction at 0.3 µM [2, 7]: 0.7
fold induction at 0.01 µM [2, 8]: 1.8
fold induction at 0.03 µM [2, 8]: 0.8
fold induction at 0.3 µM [2, 8]: 0.7
fold induction at 0.01 µM [2, 9]: 1.3
fold induction at 0.03 µM [2, 9]: 2.3
fold induction at 0.1 µM [2, 9]: 0.6
fold induction at 0.3 µM [2, 9]: 0.5
fold induction at 0.01 µM [2, 10]: 4
fold induction at 0.03 µM [2, 10]: 0.7
fold induction at 0.1 µM [2, 10]: 0.5
fold induction at 0.3 µM [2, 10]: 0.1
fold induction at 0.01 µM [2, 11]: 0.5
fold induction at 0.03 µM [2, 11]: 0.7
fold induction at 0.1 µM [2, 11]: 0.4
fold induction at 0.3 µM [2, 11]: 0.7
fold induction at 0.01 µM [2, 12]: 0.01
fold induction at 0.03 µM [2, 12]: 0.004
fold induction at 0.1 µM [2, 12]: 0.003
fold induction at 0.3 µM [2, 12]: 0.01
fold induction at 0.01 µM [2, 13]: 2.1
fold induction at 0.03 µM [2, 13]: 1.2
fold induction at 0.1 µM [2, 13]: 1
fold induction at 0.3 µM [2, 13]: 0.7
fold induction at 0.01 µM [2, 14]: 0.6
fold induction at 0.03 µM [2, 14]: 0.7
fold induction at 0.1 µM [2, 14]: 0.7
fold induction at 0.3 µM [2, 14]: 0.6
fold induction at 0.01 µM [2, 15]: 1.1
fold induction at 0.03 µM [2, 15]: 1
fold induction at 0.1 µM [2, 15]: 0.8
fold induction at 0.3 µM [2, 15]: 0.9
fold induction at 0.03 µM [2, 16]: 2.6
fold induction at 0.3 µM [2, 16]: 8.9
fold induction at 0.01 µM [2, 17]: 1.2
fold induction at 0.03 µM [2, 17]: 0.9
fold induction at 0.1 µM [2, 17]: 0.8
fold induction at 0.3 µM [2, 17]: 0.8
miRNAs upregulated at the MEC overall (hiPSC-CM pellet) ([2]; fold change ≥2, 72 h): miR-133b, miR-185-3p
miRNAs hiPSC-CM pellet, MEC overall [2, 5]: 0.01 µM

Cc1ccc(NC(=O)c2ccc(CN3CCN(C)CC3)cc2)cc1Nc1nccc(-c2cccnc2)n1 [Imatinib]
Spike Amplitude (SA) MEC ([1]; human, 72 h): 0.3 µM
miRNAs hiPSC-CM pellet, MEC overall [2]: 0.3 µM

O=C1c2c(O)ccc(O)c2C(=O)c2c(NCCNCCO)ccc(NCCNCCO)c21 [Mitoxantrone]
RTCA, MEC (CI) ([1]; hiPSC-CM, change ≥20%, Table 2): 0.1 µM (CI, BR)
Beating Rate MEC ([1]; human, 72 h): 0.1 µM
Beating rate (BR) MEC ([1]; human, 72 h): 0.1 µM
Contractility Amplitude MEC ([1]; human, 72 h): 0.1 µM
Field Potential Duration MEC ([1]; human, 72 h): 0.1 µM
RTCA, MEC (BR) ([1]; human, 72 h): 0.1 µM (CI, BR)
Spike Amplitude (SA) MEC ([1]; human, 72 h): 0.1 µM
miRNAs hiPSC-CM pellet, MEC overall [2]: 0.1 µM
miRNAs upregulated at the MEC overall (hiPSC-CM pellet) [2]: miR-96 -5p, miR-146b-5p, miR-182-5p, miR-187-3p, miR-365a-5p

COc1nc(N)nc2c1ncn2[C@@H]1O[C@H](COP(=O)(N[C@@H](C)C(=O)OCC(C)(C)C)Oc2cccc3ccccc23)[C@@H](O)[C@@]1(C)O (stereo partly shown) [BMS-986094]
Beating Rate MEC ([1]; human, 72 h): 0.048 µM
RTCA, MEC (BR) ([1]; human, 72 h): 0.048 µM
Spike Amplitude (SA) MEC ([1]; human, 72 h): 0.16 µM
intracellular miRNA upregulation in hiPSC-CM, in words [2]: lowest upregulation of miRNAs was detected at the highest concentration tested
miRNAs hiPSC-CM pellet, MEC overall [2]: 0.1 µM
miRNAs upregulated at the MEC overall (hiPSC-CM pellet) [2]: miR-29a-5p, miR-365a-5p
fold induction at 0.1 µM [2, 6]: 1.7
fold induction at 0.3 µM [2, 6]: 1
fold induction at 1 µM [2, 6]: 1.3
fold induction at 3 µM [2, 6]: 1.3
fold induction at 0.1 µM [2, 7]: 6.3
fold induction at 0.3 µM [2, 7]: 1
fold induction at 1 µM [2, 7]: 1.2
fold induction at 3 µM [2, 7]: 0.5
fold induction at 0.1 µM [2, 9]: 0.3
fold induction at 0.3 µM [2, 9]: 2.9
fold induction at 1 µM [2, 9]: 2.8
fold induction at 3 µM [2, 9]: 5.2
fold induction at 0.1 µM [2, 10]: 1.3
fold induction at 0.3 µM [2, 10]: 3.3
fold induction at 1 µM [2, 10]: 2
fold induction at 3 µM [2, 10]: 1.3
fold induction at 0.1 µM [2, 11]: 1.8
fold induction at 0.3 µM [2, 11]: 4.2
fold induction at 1 µM [2, 11]: 11.3
fold induction at 3 µM [2, 11]: 1.4
fold induction at 0.1 µM [2, 12]: 1
fold induction at 0.3 µM [2, 12]: 8.8
fold induction at 1 µM [2, 12]: 7.1
fold induction at 3 µM [2, 12]: 5.5
fold induction at 0.3 µM [2, 13]: 0.5
fold induction at 1 µM [2, 13]: 3.3
fold induction at 3 µM [2, 13]: 8.2
fold induction at 0.1 µM [2, 14]: 0.5
fold induction at 0.3 µM [2, 14]: 2.7
fold induction at 1 µM [2, 14]: 8.8
fold induction at 0.1 µM [2, 15]: 1.7
fold induction at 0.3 µM [2, 15]: 1.3
fold induction at 1 µM [2, 15]: 1.1
fold induction at 3 µM [2, 15]: 1
fold induction at 0.1 µM [2, 16]: 2.2
fold induction at 0.3 µM [2, 16]: 0.7
fold induction at 1 µM [2, 16]: 1.3
fold induction at 3 µM [2, 16]: 0.7

Endothelin-1
Contractility Amplitude magnitude of effect at MEC ([1]; hiPSC-CM, 72-hour treatment): -20%
Field Potential Duration magnitude of effect at MEC ([1]; hiPSC-CM, 72-hour treatment): +20%
Spike Amplitude (SA) magnitude of effect at MEC ([1]; hiPSC-CM, 72-hour treatment): -52%
hsa-miR-133b fold change [2]: 2.7 and 3.5 and 3.1
hsa-miR-208b-3p fold change [2]: 1.6 and 1.5 and 1.1 and 1.0

CC(=O)O[C@H]1C(=O)[C@@]2(C)[C@H]([C@H](OC(=O)c3ccccc3)[C@]3(O)C[C@H](OC(=O)[C@H](O)[C@@H](NC(=O)c4ccccc4)c4ccccc4)C(C)=C1C3(C)C)[C@]1(OC(C)=O)CO[C@@H]1C[C@@H]2O [Paclitaxel]
RTCA, MEC (CI) ([1]; hiPSC-CM, change ≥20%, Table 2): 0.3 µM
Beating Rate MEC ([1]; human, 72 h): 3 µM
Beating rate (BR) MEC ([1]; human, 72 h): 3 µM
Contractility Amplitude MEC ([1]; human, 72 h): 0.3 µM
Field Potential Duration MEC ([1]; human, 72 h): 3 µM
RTCA, MEC (BR) ([1]; human, 72 h): 3 µM
Spike Amplitude (SA) MEC ([1]; human, 72 h): 3 µM
miRNAs hiPSC-CM pellet, MEC overall [2]: 0.3 µM
miRNAs upregulated at the MEC overall (hiPSC-CM pellet) [2]: miR-96-5p, miR-133b
